Molecules are shown by their SMILES. Read-outs that look alike come from different tables or passages of the source.

The Ki is a dissociation constant, usually derived from enzyme kinetics or from competition with a known ligand.

The target in experiment [1] is T1, α1B-adrenoceptor (Rattus norvegicus, UniProt P15823).
T1 construct: from tissue; host or cells: rat liver membranes
T1 sequence (P15823 1-515): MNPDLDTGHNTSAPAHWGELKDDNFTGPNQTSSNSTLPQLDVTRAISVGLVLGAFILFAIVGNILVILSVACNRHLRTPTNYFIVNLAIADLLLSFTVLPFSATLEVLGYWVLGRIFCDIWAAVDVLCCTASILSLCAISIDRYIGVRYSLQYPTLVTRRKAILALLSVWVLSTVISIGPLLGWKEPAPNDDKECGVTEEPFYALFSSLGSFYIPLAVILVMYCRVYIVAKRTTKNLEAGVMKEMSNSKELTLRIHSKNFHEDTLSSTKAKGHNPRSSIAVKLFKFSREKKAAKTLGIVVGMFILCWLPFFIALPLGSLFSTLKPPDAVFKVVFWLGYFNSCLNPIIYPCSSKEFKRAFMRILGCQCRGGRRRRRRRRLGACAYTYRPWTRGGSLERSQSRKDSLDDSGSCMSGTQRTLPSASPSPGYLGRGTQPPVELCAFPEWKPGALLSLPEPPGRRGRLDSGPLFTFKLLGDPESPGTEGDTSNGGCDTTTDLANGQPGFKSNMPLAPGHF
Put plainly: Receptor binding assay, [3H]prazosin, rat liver membranes. As to the method:
(§1) Receptor binding assays, (RBA's) were performed for native α1-adrenoceptors. Rat submaxillary and rat liver membrane preparations were used to assess the affinity for α1A and α1B subtypes, respectively. Aliquots of membrane protein ([…]) were incubated in a final volume of […] assay buffer (50 mM Tris, 0.5 mM EDTA at pH 7.4) with 0.5 nM [^3H] prazosin for 60 mins at 28 ° C. Reaction was stopped by rapid filtration on Millipore filters. Filters were dried and bound radioactivity counted. Non-specific binding was determined in the presence of 0.3 mM prazosin.

Experiment [2] addresses T2, α1D-adrenoceptor (aorta) (Rattus norvegicus, UniProt P23944).
T2 construct: Aorta, prostate and spleen tissues were isolated from urethane anaesthetized (1.5 gm/kg) male wistar rats; from tissue; host or cells: isolated aorta of male Wistar rats
T2 sequence (P23944 1-561): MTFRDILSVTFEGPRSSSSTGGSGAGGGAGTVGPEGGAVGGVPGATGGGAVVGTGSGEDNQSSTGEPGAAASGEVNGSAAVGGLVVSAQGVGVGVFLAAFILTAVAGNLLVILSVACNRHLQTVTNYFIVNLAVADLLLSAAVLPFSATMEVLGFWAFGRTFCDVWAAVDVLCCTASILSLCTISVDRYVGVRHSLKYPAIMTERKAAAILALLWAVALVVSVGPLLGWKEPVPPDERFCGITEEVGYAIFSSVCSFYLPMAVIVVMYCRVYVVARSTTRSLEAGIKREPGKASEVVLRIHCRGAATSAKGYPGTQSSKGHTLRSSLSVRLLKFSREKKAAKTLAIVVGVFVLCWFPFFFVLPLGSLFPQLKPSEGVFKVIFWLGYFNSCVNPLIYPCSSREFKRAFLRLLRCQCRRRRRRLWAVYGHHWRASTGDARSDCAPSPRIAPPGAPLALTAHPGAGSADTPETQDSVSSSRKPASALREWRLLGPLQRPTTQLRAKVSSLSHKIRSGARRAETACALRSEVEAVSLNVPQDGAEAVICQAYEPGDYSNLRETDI
Put plainly: In vitro functional assay, norepinephrine-induced contraction of isolated aorta. The class given is cell-based. The source says: (§2) In order to study selectivity of action of the present compounds towards different α-adrenoceptor subtypes, the ability of these compounds to antagonize α1-adrenoceptor agonist induced contractile response of aorta (α1D), prostate (α1A) and spleen (α1B) was studied. Aorta, prostate and spleen tissues were isolated from urethane anaesthetized (1.5 gm/kg) male wistar rats. Isolated tissues were mounted in organ bath containing Krebs Henseleit buffer of the following composition (mM): NaCl 118; KCl 4.7; CaCl2 2.5; MgSO4·H2O 1.2; NaHCO3 25; KH2PO4 1.2; glucose 11.5. Buffer was maintained at 37° C. and aerated with a mixture of 95% O2 and 5% CO2. A resting tension of 2 g (aorta) or 1 g (spleen and prostate) was applied to tissues. Contractile response was monitored using a force displacement transducer and recorded on chart recorders. Tissues were allowed to equilibrate for 2 hours. At the end of equilibration period, concentration response curves to norepinephrine (aorta) and phenylephrine (spleen and prostate) were obtained in the absence and presence of the tested compound (at concentrations of 0.1, 1 and 10 μM). Antagonist affinity was calculated and expressed as PKB values in Table 1.

Experiment [3] concerns the target T3, α1B-adrenoceptor (spleen) (Rattus norvegicus, UniProt P15823).
T3 construct: Aorta, prostate and spleen tissues were isolated from urethane anaesthetized (1.5 gm/kg) male wistar rats; from tissue; host or cells: isolated spleen of male Wistar rats
T3 sequence (P15823 1-515): T1 sequence (P15823 1-515)
Put plainly: In vitro functional assay, phenylephrine-induced contraction of isolated spleen. The class given is cell-based.
Source text: as §2

The target of experiment [4] is T4, α1A-adrenoceptor (prostate) (Rattus norvegicus, UniProt P43140).
T4 construct: Aorta, prostate and spleen tissues were isolated from urethane anaesthetized (1.5 gm/kg) male wistar rats; from tissue; host or cells: isolated prostate of male Wistar rats
T4 sequence (P43140 1-466): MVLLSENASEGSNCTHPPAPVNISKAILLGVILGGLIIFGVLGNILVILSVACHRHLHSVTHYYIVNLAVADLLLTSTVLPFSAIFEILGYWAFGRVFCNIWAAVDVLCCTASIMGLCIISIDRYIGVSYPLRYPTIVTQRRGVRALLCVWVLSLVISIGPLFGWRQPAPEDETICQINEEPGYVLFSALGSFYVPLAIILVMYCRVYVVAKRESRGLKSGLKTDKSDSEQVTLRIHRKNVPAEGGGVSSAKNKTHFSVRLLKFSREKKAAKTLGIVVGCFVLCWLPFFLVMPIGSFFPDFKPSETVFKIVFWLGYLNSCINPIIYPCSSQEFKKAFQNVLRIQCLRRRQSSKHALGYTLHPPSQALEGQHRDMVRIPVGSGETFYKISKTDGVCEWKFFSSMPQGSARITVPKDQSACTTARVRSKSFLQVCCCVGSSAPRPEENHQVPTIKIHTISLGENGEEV
Put plainly: In vitro functional assay, phenylephrine-induced contraction of isolated prostate. The class given is cell-based.
Source text: as §2

Experiment [5] has as its target T5, α1A-adrenoceptor (Rattus norvegicus, UniProt P43140).
T5 construct: from tissue; host or cells: rat submaxillary gland membranes
T5 sequence (P43140 1-466): T4 sequence (P43140 1-466)
Put plainly: Receptor binding assay, [3H]prazosin, rat submaxillary membranes. As to the method: as §1

Where [6] appears, read: rat liver membranes, 0.5 nM [3H]prazosin, read-out: RBA (Ki nM) α1B.
Setting [7] is: rat aorta, norepinephrine, read-out: In Vitro Functional Assay (pKB) α1D (converted).
Setting [8] is: rat submaxillary membranes, 0.5 nM [3H]prazosin, read-out: RBA (Ki nM) α1A.
Setting [9] is: rat spleen, phenylephrine, read-out: In Vitro Functional Assay (pKB) α1B (converted).
Where [10] appears, read: rat prostate, phenylephrine, read-out: In Vitro Functional Assay (pKB) α1A (converted).

Consider `O=C1CCC(=O)N1CCCN1CCN(c2ccc(F)cc2)CC1` [Compound 1, 1-[4-(4-Fluorophenyl)piperazin-1-yl]-3-(2,5-dioxopyrrolidin-1-yl)propane], for which the Ki in experiment [1] (setting [6]) is 1000 nM; in experiment [5] (setting [8]), > 2500 nM. Besides, the Kb is 158 nM in experiment [2] (setting [7]), 100 nM in experiment [3] and 79.4 nM in experiment [4].

As to `O=C1CCC(=O)N1CCCN1CCN(c2cccc(C(F)(F)F)c2)CC1` [Compound 3, 1-[4-(3-Trifluoromethylphenyl)piperazin-1-yl]-3-(2,5-dioxopyrrolidin-1-yl)propane], the Ki is 1000 nM in experiment [1] (setting [6]) and 1500 nM in experiment [5] (setting [8]). For the same compound, the Kb was 10000 nM in experiment [2] (setting [7]) and 63.1 nM in experiment [3].

For the compound `O=C1CCC(=O)N1CCCN1CCN(c2ccccn2)CC1` [Compound 4, 1-[4-(2-Pyridyl)piperazin-1-yl]-3-(2,5-dioxopyrrolidin-1-yl)propane], the values for the Ki in experiment [1] (setting [6]) and in experiment [5] (setting [8]) were 2100 nM and 1660 nM, respectively. The Kb in experiment [2] (setting [7]) is 2510 nM.

Turning to `O=C1CCC(=O)N1CCCN1CCN(c2cccc(Cl)c2)CC1` [Compound 5, 1-[4-(3-Chlorophenyl)piperazin-1-yl]-3-(2,5-dioxopyrrolidin-1-yl)propane], the Ki is 175 nM in experiment [1] (setting [6]) and 106 nM in experiment [5] (setting [8]). The Kb in experiment [2] is 100 nM; in experiment [3] (setting [9]), 5010 nM; in experiment [4] (setting [10]), 5010 nM.

On to `O=C1CCC(=O)N1CCCN1CCN(c2ncccn2)CC1` [Compound 6, 1-[4-(2-Pyrimidyl)piperazin-1-yl]-3-(2,5-dioxopyrrolidin-1-yl)propane], for which the figures for the Ki in experiment [1] (setting [6]) and in experiment [5] (setting [8]) were > 2500 nM and 1140 nM, respectively. Besides, the Kb in experiment [2] (setting [7]) was 316 nM; in experiment [3] (setting [9]), 5010 nM; in experiment [4] (setting [10]), 20000 nM.

On to `Cc1ccc(N2CCN(CCCN3C(=O)CCC3=O)CC2)cc1C` [Compound 7, 1-[4-(3,4-Dimethylphenyl)piperazin-1-yl]-3-(2,5-dioxopyrrolidin-1-yl)propane], for which the Ki in experiment [1] (setting [6]) was 282 nM; in experiment [5] (setting [8]), 450 nM. Further, the Kb was 316 nM in experiment [2] (setting [7]), 200 nM in experiment [3] (setting [9]) and 398 nM in experiment [4] (setting [10]).

Consider `O=C1CCC(=O)N1CCCN1CCN(c2ccccc2)CC1` [Compound 8, 1-[4-(Phenylpiperazin)-1-yl]-3-(2,5-dioxopyrrolidin-1-yl)propane], for which the Ki is 590 nM in experiment [1] (setting [6]) and 57 nM in experiment [5]. The Kb in experiment [2] (setting [7]) was 251 nM; in experiment [4] it was 31.6 nM.

Take `COc1cccc(N2CCN(CCCN3C(=O)CCC3=O)CC2)c1` [Compound 11, 1-[4-(3-Methoxyphenyl)piperazin-1-yl]-3-(2,5-dioxopyrrolidin-1-yl)propane]: the Ki in experiment [1] (setting [6]) and in experiment [5] (setting [8]) was > 2500 nM in each case.

In the case of `COc1ccc(N2CCN(CCCN3C(=O)CCC3=O)CC2)cc1` [Compound 12, 1-[4-(4-Methoxyphenyl)piperazin-1yl]-3-(2,5-dioxopyrrolidin-1yl)propane], the Ki in experiment [1] (setting [6]) and in experiment [5] (setting [8]) was > 2500 nM in each case.

Turning to `O=C1CCCC(=O)N1CCCN1CCN(c2cccc(C(F)(F)F)c2)CC1` [Compound 16, 1-[4-(3-Trifluoromethylphenyl)piperazin-1-yl]-3-(2,6-dioxopiperidin-1-yl)propane], the figures for the Ki in experiment [1] (setting [6]) and in experiment [5] (setting [8]) were 765 nM and 345 nM, respectively. Moreover, the Kb in experiment [2] (setting [7]) was 126 nM; in experiment [4] (setting [10]), 316 nM.

Take `O=C1CCCC(=O)N1CCCN1CCN(c2ccccn2)CC1` [Compound 19, 1-[4-(2-Pyridyl)piperazin-1-yl)-3-(2,6-dioxopiperidin-1-yl)propane]: the Ki in experiment [1] (setting [6]) was > 2500 nM; in experiment [5] (setting [8]), 164 nM. The Kb in experiment [2] (setting [7]) was 200 nM; in experiment [4] (setting [10]), 398 nM.

For `O=C1CCCC(=O)N1CCCN1CCN(c2cccc(Cl)c2)CC1` [Compound 20, 1-[4-(3-Chlorophenyl)piperazin-1-yl]-3-(2,6-dioxopiperidin-1-yl)propane], the values for the Ki in experiment [1] (setting [6]) and in experiment [5] (setting [8]) were 113 nM and 22 nM, respectively. Also, the Kb was 25.1 nM in experiment [2] (setting [7]) and 31.6 nM in experiment [4] (setting [10]).

As to `O=C1CCCC(=O)N1CCCN1CCN(c2ncccn2)CC1` [Compound 22, 1-[4-(2-Pyrimidyl)piperazin-1-yl]-3-(2,6-dioxopiperidin-1-yl)propane], the Ki in experiment [1] (setting [6]) and in experiment [5] (setting [8]) was > 2500 nM throughout. Moreover, the Kb is 100 nM in experiment [2] (setting [7]) and 398 nM in experiment [4] (setting [10]).

With `COc1cccc(N2CCN(CCCN3C(=O)CCCC3=O)CC2)c1` [Compound 23, 1-[4-(3-Methoxyphenyl)piperazin-1yl]-3-(2,6-dioxopiperidin-1-yl)propane], the values for the Ki in experiment [1] (setting [6]) and in experiment [5] (setting [8]) were 940 nM and 2170 nM, respectively.

On to `COc1ccc(N2CCN(CCCN3C(=O)CCCC3=O)CC2)cc1` [Compound 24, 1-[4-(4-Methoxyphenyl)piperazin-1-yl]-3-(2,6-dioxopiperidin-1-yl)propane], for which the values for the Ki in experiment [1] and in experiment [5] were > 2500 nM and < 2500 nM, respectively.

Take `COc1ccccc1N1CCN(CCCCN2C(=O)CCCC2=O)CC1` [Compound 25, 1-[4-(2-Methoxyphenyl)piperazin-1yl]-4-(2,6-dioxopiperidin-1yl)butane]: the Ki in experiment [1] (setting [6]) was 7.5 nM; in experiment [5] (setting [8]) it was 1.6 nM.

On to `COc1ccccc1N1CCN(CCCN2C(=O)CC(c3ccccc3)C2=O)CC1` (stereo not shown) [Compound 26, 1-[4-(2-Methoxyphenyl)piperazin-1yl]-3-[2,5-dioxo-3-phenyl-pyrolidin-1-yl]propane], for which the figures for the Ki in experiment [1] (setting [6]) and in experiment [5] (setting [8]) were 600 nM and 30 nM, respectively.

Consider `O=C1CCC(=O)N1CCCN1CCC(c2ccccc2)CC1` [Compound 27, 1-[4-(Phenyl)piperidin-1-yl]-3-[2,5-dioxopyrolidin-1-yl]propane], for which the results for the Ki in experiment [1] (setting [6]) and in experiment [5] (setting [8]) were 2000 nM and 1300 nM, respectively.

These data come from patent US6410735B1, “1-(4-arylpiperazin-1-y1)-ω-[N-(α,ω-dicarboximido)]-alkanes useful as uro-selective α1-adrenoceptor blockers” (Ranbaxy Laboratories Limited, priority 1997, dated 2002).
